Tests used:
[1] = tested on: Pyricularia oryzae Carvara KA301; format: in vivo; conditions: for C. V. (%) RCB: 50 ppm, control value, rice blast; for C. V. (%) Fungicidal Activities against RCB at 10 ppm / C. V. (%) Fungicidal Activities against RCB at 10 ppm (TABLE 6): sprayed on Nakdong rice plant, control value from lesion area
Botrytis cinerae = experiment: Fungicidal activity against cucumber gray mold rot (CGM) disease; format: in vivo; conditions: 50 ppm, control value
Description: Botrytis cinerae, which was isolated from cucumber infected thereby, was inoculated on a PDA agar medium and cultured under a 12L/12D cycle at 25° C. for 15 days to form spore. The spores were scraped, filtered through a gauze and then suspended in potato dextrose liquid medium at a concentration of 1×10^6 spore/ml. The spore suspension was sprayed on a cucumber plant having one leaf. The cucumber plant was held in a humidified room at 20° C. for 3 days. L.A. on a leaf was measured to calculate an C.V.

Phytophthora infestans = format: in vivo; conditions: 50 ppm; control value, tomato late blight
Puccinia recondita = experiment: Fungicidal activity against wheat leaf rust (WLR) disease; format: in vivo; conditions: for C. V. (%) WLR: 50 ppm, control value, wheat leaf rust; for C. V. (%), Fungicidal Activities against WLB at 10 ppm: Table 8 (Test Example 5)
Erysiphae graminis = experiment: Fungicidal activity against barley powdery mildew (BPM) disease; format: in vivo; conditions: for C. V. (%) BPM: 50 ppm, control value, barley powdery mildew; for C. V. (%), Fungicidal activities against TLB at 10 ppm: Table 9 (Test Example 6)
Description: Erysiphae graminis was subcultured on a wheat plant in a laboratory. 15 g of barley seeds was sowed in a pot (diameter 6.5 cm) and cultured in a greenhouse for 7 days to obtain a barley plant having only a primary leaf. The barley plant was inoculated with spores by shaking thereover another plant infected by BPM. The inoculated barley plant was cultured in an incubator maintained at a temperature of 22 to 24° C. and a relative humidity of 50% for 7 days to induce BPM. L.A. on the leaf was measured to calculate an C.V.

Rhizoctonia solani AG-1 = experiment: Fungicidal activity against rice sheath blight (RSB) disease; conditions: 50 ppm, control value
Description: 50 ml of the resulting solution was sprayed on leaves of a host plant. The plant was kept at room temperature for 24 hours to let the solvent evaporate, and then, a pathogenic fungus was inoculated thereonto. The plant was held in a humidity chamber for 24 hours, transferred to an plant growth room kept at 20 to 27° C. and a relative humidity of 60 to 80% and kept to induce disease. Subsequently, the lesion area(L.A.) attacked by the pathogenic fungus was measured according to a method of Cho(Cho, K. Y., Search Report by Korea Research Institute of Chemical Technology (1989))”. This procedure was repeated twice for each test. 10% Acetone solution containing 250 ppm of Tween-20 was used as a control.
The fungicidal activity of the compound of the present invention is repressed by a control value (C.V.) calculated as; [formula]
Rhizoctonia solani AG-1 was cultured on a PDA medium(potato 200 g, dextrose 20 g, agar 20 g and distilled water 1 l) for 3 days and the agar disc (diameter 0.6 cm) was inoculated and cultured on sterilized wheat bran medium in a 1 l bottle at 26 to 28° C. for 7 days. A mycelial mass was ground using a homogenizer, inoculated uniformly on soil of a pot wherein a Nakdong rice plant having 2 or 3 leaves and an height of 5 cm grew, and kept in humidity polyvinyl chamber for 5 days to induce RSB. L.A. on a leaf sheath was measured to calculate an C.V.

Row | SMILES | C. V. (%) RCB [1] [%] | C. V. (%) CGM (Botrytis cinerae) [%] | C. V. (%) TLB (Phytophthora infestans) [%] | C. V. (%) WLR (Puccinia recondita) [%] | C. V. (%) BPM (Erysiphae graminis) [%] | C. V. (%) RSB (Rhizoctonia solani AG-1) [%] | C. V. (%) Fungicidal Activities against RCB at 10 ppm [1] [%] | C. V. (%) Fungicidal Activities against RCB at 10 ppm (TABLE 6) [1] [%] | C. V. (%), Fungicidal Activities against WLB at 10 ppm (Puccinia recondita) [%] | C. V. (%), Fungicidal activities against TLB at 10 ppm (Erysiphae graminis) [%]
1 | COC(=O)C(=CSC)c1ccccc1COc1cccc(OC(F)=Cc2cc(C)c(C)cc2C)c1 [Compound 24] | 62 | 27 | 18 | 98 | 96 | 46 | – | – | – | –
2 | COC=C(C(=O)OC)c1ccccc1COc1cccc(OC(F)=Cc2cccc(OC)c2)c1 [Compound 25] | 95 | 0 | 43 | 100 | 98 | 92 | 95 | 95 | 99 | 91
3 | CNC(=O)C(=COC)c1ccccc1COc1cccc(OC(F)=Cc2cccc(OC)c2)c1 [Compound 26] | 20 | 0 | 55 | 70 | 88 | 35 | – | – | – | –
4 | CON=C(C(=O)OC)c1ccccc1COc1cccc(OC(F)=Cc2cccc(OC)c2)c1 [Compound 27] | 100 | 0 | 80 | 86 | 96 | 90 | – | – | – | 97
5 | COC(=O)C(=CSC)c1ccccc1COc1cccc(OC(F)=Cc2cccc(OC)c2)c1 [Compound 28] | 93 | 21 | 73 | 91 | 97 | 70 | – | – | – | –
6 | COC=C(C(=O)OC)c1ccccc1COc1cccc(OC(F)=Cc2ccc(OC)cc2)c1 [Compound 29] | 93 | 28 | 56 | 100 | 99 | 90 | 92 | 92 | 99 | 90
7 | CNC(=O)C(=COC)c1ccccc1COc1cccc(OC(F)=Cc2ccc(OC)cc2)c1 [Compound 30] | 93 | 28 | 6 | 0 | 16 | 5 | – | – | – | –
8 | CON=C(C(=O)OC)c1ccccc1COc1cccc(OC(F)=Cc2ccc(OC)cc2)c1 [Compound 31] | 93 | 0 | 84 | 93 | 50 | 30 | – | – | – | –
9 | COC=C(C(=O)OC)c1ccccc1COc1cccc(OC(F)=Cc2ccc(Oc3ccccc3)cc2)c1 [Compound 32] | 30 | 20 | 24 | 88 | 90 | 30 | – | – | – | –
10 | CON=C(C(=O)OC)c1ccccc1COc1cccc(OC(F)=Cc2ccc(Oc3ccccc3)cc2)c1 [Compound 33] | 20 | 20 | 10 | 83 | 94 | 5 | – | – | – | –
11 | COC=C(C(=O)OC)c1ccccc1COc1cccc(OC(F)=Cc2cccc(F)c2)c1 [Compound 34] | 99 | 0 | 75 | 98 | 100 | 95 | 100 | 100 | 100 | 100
12 | CNC(=O)C(=COC)c1ccccc1COc1cccc(OC(F)=Cc2cccc(F)c2)c1 [Compound 35] | 15 | 35 | 35 | 40 | 58 | 30 | – | – | – | –
13 | COC=C(C(=O)OC)c1ccccc1COc1cccc(OC(F)=Cc2ccc(F)cc2)c1 [Compound 36] | 100 | 0 | 66 | 100 | 99 | 95 | 94 | 94 | 100 | 100

Source: patent US6444850B1, “Fungicidial compounds having a fluorovinyloxphyenyl moiety and process for the preparation thereof” (priority 1997, dated 2002)
